Measurements: patent US20230312542A1, “HYDROXYPYRROLIDINE DERIVATIVE AND MEDICINAL APPLICATION THEREOF” (MITSUBISHI TANABE PHARMA CORPORATION, priority 2020, published 2023)

Target: VHL (co-expressed with Elongin B and Elongin C) (Homo sapiens (Human), UniProt P40337)
Assay: Measurement of intermolecular interactions using surface plasmon resonance (Biacore T200), Kd value for VHL
Type: binding
Conditions: SPR, immobilized VHL, 25° C.; read-out: Kd
Source text: As the device, Biacore T200 (manufactured by GE Healthcare) was used. VHL was obtained by co-expressing Elongin B and Elongin C with a Twin-Strep-tag added to the N-terminus. As the sensor chip, Sensor chip CM5 (manufactured by GE Healthcare) was used. First, Strep-Tactin XT (manufactured by GE Healthcare) was immobilized on the sensor chip by amine coupling. Thereafter, VHL was immobilized using the affinity of Strep-Tactin XT and Twin-Strep-tag, and VHL was further immobilized on the sensor chip by amine coupling.
As the running buffer, a mixed solution of 20 mM HEPES pH 7.5, 150 mM NaCl, 1 mM TCEP, 0.005% Tween 20, and 2% DMSO was used. […] The Contact time and the Dissociation time were determined according to the properties of the compounds. For many compounds, 60 seconds and 120 seconds were respectively used.

VHL (co-expressed with Elongin B and Elongin C), sequence (P40337 whole entry, looked up): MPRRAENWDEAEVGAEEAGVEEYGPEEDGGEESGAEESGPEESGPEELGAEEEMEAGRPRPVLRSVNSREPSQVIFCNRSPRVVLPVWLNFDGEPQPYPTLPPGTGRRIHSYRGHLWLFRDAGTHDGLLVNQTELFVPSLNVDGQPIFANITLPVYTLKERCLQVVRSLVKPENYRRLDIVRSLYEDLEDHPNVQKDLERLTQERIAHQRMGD
VHL (co-expressed with Elongin B and Elongin C), sequence (Q15370 whole entry partner, looked up): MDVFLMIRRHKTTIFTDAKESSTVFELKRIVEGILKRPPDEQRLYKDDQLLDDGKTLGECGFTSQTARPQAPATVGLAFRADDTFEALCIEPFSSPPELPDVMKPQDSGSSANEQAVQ
VHL (co-expressed with Elongin B and Elongin C), sequence (Q15369 whole entry partner, looked up): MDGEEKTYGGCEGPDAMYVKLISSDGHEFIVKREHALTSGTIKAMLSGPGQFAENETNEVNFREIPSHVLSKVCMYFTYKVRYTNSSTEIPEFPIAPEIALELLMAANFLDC

Row | Kd | Compound
1 | 1 to 10 µM | CC(=O)N[C@H](C(=O)N1C[C@H](O)C[C@H]1c1nc(C(=O)N(C)Cc2cccc(F)c2)c[nH]1)C(C)(C)C [Example 18, 2-[(2S,4R)-1-[(2S)-2-acetamido-3,3-dimethylbutanoyl]-4-hydroxypyrrolidin-2-yl]-N-[(3-fluorophenyl)methyl]-N-methyl-1H-imidazole-4-carboxamide]
2 | 10 to 50 µM | COc1cc(C(C(=O)N2C[C@H](O)C[C@H]2c2nccn2CC(=O)Nc2ccccc2)C(C)C)on1 (stereo partly drawn) [Example 96, 2-[2-[(2S,4R)-4-hydroxy-1-[2-(3-methoxy-1,2-oxazol-5-yl)-3-methylbutanoyl]pyrrolidin-2-yl]imidazol-1-yl]-N-phenylacetamide]
3 | < 1 µM | COc1cc(C(C(=O)N2C[C@H](O)C[C@H]2c2nc(C(=O)N(C)[C@H](C)C(=O)NCc3ccccc3)c[nH]2)C(C)C)on1 (stereo partly drawn) [Example 159, N-[(1R)-2-(benzylamino)-1-methyl-2-oxo-ethyl]-2-[(2S,4R)-4-hydroxy-1-[2-(3-methoxyisoxazol-5-yl)-3-methylbutanoyl]pyrrolidin-2-yl]-N-methyl-1H-imidazole-4-carboxamide]
4 | 10 to 50 µM | Cc1cc(-c2cnn(C(C(=O)N3C[C@H](O)C[C@H]3c3ncc[nH]3)C(C)C)c2)on1 (stereo partly drawn) [Example 160, 1-[(2S,4R)-4-hydroxy-2-(1H-imidazol-2-yl)pyrrolidin-1-yl]-3-methyl-2-[4-(3-methylisoxazol-5-yl)pyrazol-1-yl]butan-1-one]
5 | 1 to 10 µM | CC(=O)N[C@H](C(=O)N1C[C@H](O)C[C@H]1c1ncc(-c2cccc(-c3scnc3C)c2)[nH]1)C(C)(C)C [Example 6, N-[(2S)-1-[(2S,4R)-4-hydroxy-2-[5-[3-(4-methyl-1,3-thiazol-5-yl)phenyl]-1H-imidazol-2-yl]pyrrolidin-1-yl]-3,3-dimethyl-1-oxobutan-2-yl]acetamide]
6 | 1 to 10 µM | COc1cccc(Cc2cnc([C@@H]3C[C@@H](O)CN3C(=O)C(c3cc(OC)no3)C(C)C)[nH]2)c1 (stereo partly drawn) [Example 63, 1-[(2S,4R)-4-hydroxy-2-[5-[(3-methoxyphenyl)methyl]-1H-imidazol-2-yl]pyrrolidin-1-yl]-2-(3-methoxy-1,2-oxazol-5-yl)-3-methylbutan-1-one]
7 | < 1 µM | COc1cc(C(C(=O)N2C[C@H](O)C[C@H]2c2ncc(-c3cccc(-c4scnc4C)c3)[nH]2)C(C)C)on1 (stereo partly drawn) [Example 44, 1-[(2S,4R)-4-hydroxy-2-[5-[3-(4-methyl-1,3-thiazol-5-yl)phenyl]-1H-imidazol-2-yl]pyrrolidin-1-yl]-2-(3-methoxy-1,2-oxazol-5-yl)-3-methylbutan-1-one]
8 | 1 to 10 µM | COc1cc(C(C(=O)N2C[C@H](O)C[C@H]2c2nc(C(=O)N(C)CC3CCN(Cc4ccccc4F)CC3)c[nH]2)C(C)C)on1 (stereo partly drawn) [Example 155, N-[[1-[(2-fluorophenyl)methyl]-4-piperidyl]methyl]-2-[(2S,4R)-4-hydroxy-1-[2-(3-methoxyisoxazol-5-yl)-3-methylbutanoyl]pyrrolidin-2-yl]-N-methyl-1H-imidazole-4-carboxamide]
9 | 1 to 10 µM | CC(=O)N[C@H](C(=O)N1C[C@H](O)C[C@H]1c1nc(C(=O)N(C)Cc2cccc(-c3scnc3C)c2)c[nH]1)C(C)(C)C [Example 29, 2-[(2S,4R)-1-[(2S)-2-acetamido-3,3-dimethylbutanoyl]-4-hydroxypyrrolidin-2-yl]-N-methyl-N-[[3-(4-methyl-1,3-thiazol-5-yl)phenyl]methyl]-1H-imidazole-4-carboxamide]
10 | 10 to 50 µM | CCCc1nc(C(C(=O)N2C[C@H](O)C[C@H]2c2ncc[nH]2)C(C)C)no1 (stereo partly drawn) [Example 161, 1-[(2S,4R)-4-hydroxy-2-(1H-imidazol-2-yl)pyrrolidin-1-yl]-3-methyl-2-(5-propyl-1,2,4-oxadiazol-3-yl)butan-1-one]
11 | 1 to 10 µM | COc1ccc(-c2[nH]c([C@@H]3C[C@@H](O)CN3C(=O)C(c3cc(OC)no3)C(C)C)nc2C(F)(F)F)cc1 (stereo partly drawn) [Example 74, 1-[(2S,4R)-4-hydroxy-2-[5-(4-methoxyphenyl)-4-(trifluoromethyl)-1H-imidazol-2-yl]pyrrolidin-1-yl]-2-(3-methoxy-1,2-oxazol-5-yl)-3-methylbutan-1-one]
12 | 1 to 10 µM | CC(=O)N[C@H](C(=O)N1C[C@H](O)C[C@H]1c1nc(C(=O)N(C)Cc2ccccn2)c[nH]1)C(C)(C)C [Example 48, 2-[(2S,4R)-1-[(2S)-2-acetamido-3,3-dimethylbutanoyl]-4-hydroxypyrrolidin-2-yl]-N-methyl-N-(pyridin-2-ylmethyl)-1H-imidazole-4-carboxamide]
13 | 1 to 10 µM | CC(=O)N[C@H](C(=O)N1C[C@H](O)C[C@H]1c1nc(C(=O)N(C)Cc2cccnc2)c[nH]1)C(C)(C)C [Example 53, 2-[(2S,4R)-1-[(2S)-2-acetamido-3,3-dimethylbutanoyl]-4-hydroxypyrrolidin-2-yl]-N-methyl-N-(pyridin-3-ylmethyl)-1H-imidazole-4-carboxamide]
14 | 1 to 10 µM | COc1cccc(-c2nc([C@@H]3C[C@@H](O)CN3C(=O)C(c3cc(OC)no3)C(C)C)[nH]c2-c2cccc(OC)c2)c1 (stereo partly drawn) [Example 76, 1-[(2S,4R)-2-[4,5-bis(3-methoxyphenyl)-1H-imidazol-2-yl]-4-hydroxypyrrolidin-1-yl]-2-(3-methoxy-1,2-oxazol-5-yl)-3-methylbutan-1-one]
15 | 1 to 10 µM | CC(=O)N[C@H](C(=O)N1C[C@H](O)C[C@H]1c1nc(C(=O)N(C)Cc2ccncc2)c[nH]1)C(C)(C)C [Example 49, 2-[(2S,4R)-1-[(2S)-2-acetamido-3,3-dimethylbutanoyl]-4-hydroxypyrrolidin-2-yl]-N-methyl-N-(pyridin-4-ylmethyl)-1H-imidazole-4-carboxamide]
16 | 1 to 10 µM | CC(=O)N[C@H](C(=O)N1C[C@H](O)C[C@H]1c1nc(C(=O)N(C)Cc2cccc3ccccc23)c[nH]1)C(C)(C)C [Example 31, 2-[(2S,4R)-1-[(2S)-2-acetamido-3,3-dimethylbutanoyl]-4-hydroxypyrrolidin-2-yl]-N-methyl-N-(naphthalen-1-ylmethyl)-1H-imidazole-4-carboxamide]
17 | 1 to 10 µM | CNC(=O)c1ccc(-c2cnc([C@@H]3C[C@@H](O)CN3C(=O)C(c3cc(OC)no3)C(C)C)[nH]2)cc1 (stereo partly drawn) [Example 97, 4-[2-[(2S,4R)-4-hydroxy-1-[2-(3-methoxy-1,2-oxazol-5-yl)-3-methylbutanoyl]pyrrolidin-2-yl]-1H-imidazol-5-yl]-N-methylbenzamide]
18 | 10 to 50 µM | COc1cc(C(C(=O)N2C[C@H](O)C[C@H]2c2nc(C)cs2)C(C)C)on1 (stereo partly drawn) [Example 147, 1-[(2S,4R)-4-hydroxy-2-(4-methylthiazol-2-yl)pyrrolidin-1-yl]-2-(3-methoxyisoxazol-5-yl)-3-methylbutan-1-one]
19 | 1 to 10 µM | CC(=O)N[C@H](C(=O)N1C[C@H](O)C[C@H]1c1ncc(-c2ccc(-c3scnc3C)cc2)[nH]1)C(C)(C)C [Example 89, N-[(2S)-1-[(2S,4R)-4-hydroxy-2-[5-[4-(4-methyl-1,3-thiazol-5-yl)phenyl]-1H-imidazol-2-yl]pyrrolidin-1-yl]-3,3-dimethyl-1-oxobutan-2-yl]acetamide]
20 | < 1 µM | COc1cc(C(C(=O)N2C[C@H](O)C[C@H]2c2nc(C(=O)N(C)Cc3ccc(-c4scnc4C)cc3)c[nH]2)C(C)C)on1 (stereo partly drawn) [Example 54, 2-[(2S,4R)-4-hydroxy-1-[2-(3-methoxy-1,2-oxazol-5-yl)-3-methylbutanoyl]pyrrolidin-2-yl]-N-methyl-N-[[4-(4-methyl-1,3-thiazol-5-yl)phenyl]methyl]-1H-imidazole-4-carboxamide]
